Experiments:
HCC1954 cells = assay: Inhibition of HCC1954 cell growth (method analogous to BT-474); assay type: cell-based; conditions: Homo sapiens
Method: (§1) BT-474 human mammary gland ductal carcinoma cells were seeded in a clear polystyrene 96-well microculture plate (Corning® Costar® 96-well flat bottom plate, Cat. #3997) in a total volume of 90 μL/well. After 24 hours of incubation in a humidified incubator at 37° C. with 5% CO2 and 95% air, 10 μL of 10×, serially diluted test agents in growth medium were added to each well (10 pt dose response curve, highest concentration 10 μM of test agent). After 72 hours of culture in a humidified incubator at 37° C., in an atmosphere of 5% CO2 and 95% air, the plated cells and Cell Titer-Glo® (Protnega G7571) reagents were brought to room temperature to equilibrate for 30 minutes. 100 μL of Cell Titer-Glo® reagent was added to each well. The plate was shaken for two minutes and then left to equilibrate for ten minutes. The media/Cell Titer-Glo® reagent was transferred to a white polystyrene 96-well microculture plate (Corning® Costar® 96-well flat bottom plate, Cat. #3917) before reading luminescence on a Tecan GENios microplate reader.
(§2) Percent inhibition of cell growth was calculated relative to untreated control wells. The IC50 value for the test agents was determined using Prism 6.05 by curve-fitting of the data using the following four parameter-logistic equation:
(§3) [formula] where Top is the maximal % of control absorbance, Bottom is the minimal % of control absorbance at the highest agent concentration, Y is the % of control absorbance, X is the agent concentration, IC50 is the concentration of agent that inhibits cell growth by 50% compared to the control cells, and n is the slope of the curve.
Inhibitory response of test compounds against HCC1954 cells was determined using a method analogous to that used for BT-474 cells.

[1] = tested on: BT-474 human mammary gland ductal carcinoma cells; assay: Inhibition of BT-474 cell growth (Cell Titer-Glo, 72 h); assay type: cell-based; conditions: BT-474 cells, 72 hours of culture, Cell Titer-Glo luminescence
Method: as §1, §2
as §3, with “curve. […]” for “curve.”

SMILES	IC50 (HCC1954 cells) [nM]	IC50 [1] [nM]
C/C=C(\C)[C@H]1OC(=O)[C@@H](C)NC(=O)[C@H]([C@H](C)CC)NC(=O)CN(C)C(=O)[C@@H](Cc2ccccc2)N(C)C(=O)[C@H](C)NC(=O)[C@@H](CC(C)C)OC(=O)/C(C)=C/C[C@H](OC(=O)NCCCO)[C@@H]1C [Compound 1, (2R,5S,8R,14S,17R,20S,21S,22S,E)-8-benzyl-20-((E)-but-2-en-2-yl)-14-((R)-sec-butyl)-2-isobutyl-5,7,10,17,21,25-hexamethyl-3,6,9,12,15,18,26-heptaoxo-1,19-dioxa-4,7,10,13,16-pentaazacyclohexacos-24-en-22-yl (3-hydroxypropyl)carbamate]	0.457	0.0811
C/C=C(\C)[C@H]1OC(=O)[C@@H](C)NC(=O)[C@H]([C@H](C)CC)NC(=O)CN(C)C(=O)[C@@H](Cc2ccccc2)N(C)C(=O)[C@H](C)NC(=O)[C@@H](CC(C)C)OC(=O)/C(C)=C/C[C@H](OC(=O)NCCCCO)[C@@H]1C [Compound 2, (2R,5S,8R,14S,17R,20S,21S,22S,E)-8-benzyl-20-((E)-but-2-en-2-yl)-14-((R)-sec-butyl)-2-isobutyl-5,7,10,17,21,25-hexamethyl-3,6,9,12,15,18,26-heptaoxo-1,19-dioxa-4,7,10,13,16-pentaazacyclohexacos-24-en-22-yl (4-hydroxybutyl)carbamate]	4.95	3.75
C/C=C(\C)[C@H]1OC(=O)[C@@H](C)NC(=O)[C@H]([C@H](C)CC)NC(=O)CN(C)C(=O)[C@@H](Cc2ccccc2)N(C)C(=O)[C@H](C)NC(=O)[C@@H](CC(C)C)OC(=O)/C(C)=C/C[C@H](OC(=O)NCCCCCO)[C@@H]1C [Compound 3, (2R,5S,8R,14S,17R,20S,21S,22S,E)-8-benzyl-20-((E)-but-2-en-2-yl)-14-((R)-sec-butyl)-2-isobutyl-5,7,10,17,21,25-hexamethyl-3,6,9,12,15,18,26-heptaoxo-1,19-dioxa-4,7,10,13,16-pentaazacyclohexacos-24-en-22-yl (5-hydroxypentyl)carbamate]	1.41	0.0843
C/C=C(\C)[C@H]1OC(=O)[C@@H](C)NC(=O)[C@H](C(C)CC)NC(=O)CN(C)C(=O)[C@@H](Cc2ccc(Cl)cc2)N(C)C(=O)[C@H](C)NC(=O)[C@@H](CC(C)C)OC(=O)/C(C)=C/C[C@H](OC(=O)N(C)CCCCCCNC)[C@@H]1C (stereo partly drawn) [Compound 19, (2R,5S,8R,14S,17R,20S,21S,22S,E)-20-((E)-but-2-en-2-yl)-14-((R)-sec-butyl)-8-(4-chlorobenzyl)-2-isobutyl-5,7,10,17,21,25-hexamethyl-3,6,9,12,15,18,26-heptaoxo-1,19-dioxa-4,7,10,13,16-pentaazacyclohexacos-24-en-22-yl methyl (6-(methylamino)hexyl)carbamate]	4.16	
C/C=C(\C)[C@H]1OC(=O)[C@@H](C)NC(=O)[C@H]([C@H](C)CC)NC(=O)CN(C)C(=O)[C@@H](Cc2ccc(Cl)cc2)N(C)C(=O)[C@H](C)NC(=O)[C@@H](CC(C)C)OC(=O)/C(C)=C/C[C@H](OC(=O)N(C)CCCCCCCCCCCCNC)[C@@H]1C [Compound 20, (2R,5S,8R,14S,17R,20S,21S,22S,E)-20-((E)-but-2-en-2-yl)-14-((R)-sec-butyl)-8-(4-chlorobenzyl)-2-isobutyl-5,7,10,17,21,25-hexamethyl-3,6,9,12,15,18,26-heptaoxo-1,19-dioxa-4,7,10,13,16-pentaazacyclohexacos-24-en-22-yl methyl(12-(methylamino)dodecyl)carbamate]	15.4	
C/C=C(\C)[C@H]1OC(=O)C(C)(C)NC(=O)[C@H]([C@H](C)CC)NC(=O)CN(C)C(=O)[C@@H](Cc2ccc(Cl)cc2)N(C)C(=O)[C@H](C)NC(=O)[C@@H](CC(C)C)OC(=O)/C(C)=C/C[C@H](O)[C@@H]1C [Compound 21, (6S,12R,15S,18R,24S,25S,26S,E)-26-((E)-but-2-en-2-yl)-6-((R)-sec-butyl)-12-(4-chlorobenzyl)-24-hydroxy-18-isobutyl-3,3,10,13,15,21,25-heptamethyl-1,19-dioxa-4,7,10,13,16-pentaazacyclohexacos-21-ene-2,5,8,11,14,17,20-heptaone]	0.56	
C/C=C(\C)[C@H]1OC(=O)C(C)(C)NC(=O)[C@H](C(C)CC)NC(=O)CN(C)C(=O)[C@@H](Cc2ccc(Cl)cc2)N(C)C(=O)[C@H](C)NC(=O)[C@@H](CC(C)C)OC(=O)/C(C)=C/C[C@H](OC(=O)NCCCCCO)[C@@H]1C (stereo partly drawn) [Compound 22, (2R,5S,8R,14S,20S,21S,22S,E)-20-((E)-but-2-en-2-yl)-14-((R)-sec-butyl)-8-(4-chlorobenzyl)-2-isobutyl-5,7,10,17,17,21,25-heptamethyl-3,6,9,12,15,18,26-heptaoxo-1,19-dioxa-4,7,10,13,16-pentaazacyclohexacos-24-en-22-yl(5-hydroxypentyl)carbamate]	7.26	
C/C=C(\C)[C@H]1OC(=O)C(C)(C)NC(=O)[C@H]([C@H](C)CC)NC(=O)CN(C)C(=O)[C@@H](Cc2ccc(Cl)cc2)N(C)C(=O)[C@H](C)NC(=O)[C@@H](CC(C)C)OC(=O)/C(C)=C/C[C@H](OC(=O)N(C)CCCCCCNC)[C@@H]1C [Compound 23, (2R,5S,8R,14S,20S,21S,22S,E)-20-((E)-but-2-en-2-yl)-14-((R)-sec-butyl)-8-(4-chlorobenzyl)-2-isobutyl-5,7,10,17,17,21,25-heptamethyl-3,6,9,12,15,18,26-heptaoxo-1,19-dioxa-4,7,10,13,16-pentaazacyclohexacos-24-en-22-yl methyl(6-(methylamino)hexyl)carbamate]	0.47	
C/C=C(\C)[C@H]1OC(=O)C(C)(C)NC(=O)[C@H]([C@H](C)CC)NC(=O)CN(C)C(=O)[C@@H](Cc2ccc(Cl)cc2)N(C)C(=O)[C@H](C)NC(=O)[C@@H](CC(C)C)OC(=O)/C(C)=C/C[C@H](OC(=O)N(C)CCCCCCN(C)C(C)=O)[C@@H]1C [Compound 24, (2R,5S,8R,14S,20S,21S,22S,E)-20-((E)-but-2-en-2-yl)-14-((R)-sec-butyl)-8-(4-chlorobenzyl)-2-isobutyl-5,7,10,17,17,21,25-heptamethyl-3,6,9,12,15,18,26-heptaoxo-1,19-dioxa-4,7,10,13,16-pentaazacyclohexacos-24-en-22-yl methyl(6-(N-methylacetamido)hexyl)carbamate]	2.07	
C/C=C(\C)[C@H]1OC(=O)C(C)(C)NC(=O)[C@H]([C@H](C)CC)NC(=O)CN(C)C(=O)[C@@H](Cc2ccc(Cl)cc2)N(C)C(=O)[C@H](C)NC(=O)[C@@H](CC(C)C)OC(=O)/C(C)=C/C[C@H](OC(=O)N2CCN(CCO)CC2)[C@@H]1C [Compound 26, (2R,5S,8R,14S,20S,21S,22S,E)-20-((E)-but-2-en-2-yl)-14-((R)-sec-butyl)-8-(4-chlorobenzyl)-2-isobutyl-5,7,10,17,17,21,25-heptamethyl-3,6,9,12,15,18,26-heptaoxo-1,19-dioxa-4,7,10,13,16-pentaazacyclohexacos-24-en-22-yl 4-(2-hydroxyethyl)piperazine-1-carboxylate]	1.36	
C/C=C(\C)[C@H]1OC(=O)C(C)(C)NC(=O)[C@H]([C@H](C)CC)NC(=O)CN(C)C(=O)[C@@H](Cc2ccc(C#N)cc2)N(C)C(=O)[C@H](C)NC(=O)[C@@H](CC(C)C)OC(=O)/C(C)=C/C[C@H](OC(=O)NCCCCCO)[C@@H]1C [Compound 29, (2R,5S,8R,14S,20S,21S,22S,E)-20-((E)-but-2-en-2-yl)-14-((R)-sec-butyl)-8-(4-cyanobenzyl)-2-isobutyl-5,7,10,17,17,21,25-heptamethyl-3,6,9,12,15,18,26-heptaoxo-1,19-dioxa-4,7,10,13,16-pentaazacyclohexacos-24-en-22-yl (5-hydroxypentyl)carbamate]	27.3	

Source: patent US11254705B2, “Cyclic peptide analogs and conjugates thereof” (Sirenas LLC, priority 2016, dated 2022)
